Experimental data reported in ChEMBL document CHEMBL2385072, “Development of oleanane-type triterpenes as a new class of HCV entry inhibitors” (J Med Chem, 2013).

Legend:
Conditions in all cases: HEK-293T
[1] = system: Vesicular stomatitis virus; assay: Antiviral activity against pseudo VSV infected in human 293T cells assessed as inhibition of vesicular stromatis G protein pseudo particles entry at 5 uM after 72 hrs by luciferase reporter gene assay; type: functional
Hepatitis C virus [2] = assay: Antiviral activity against pseudo HCV infected in human 293T cells assessed as inhibition of HCV pseudo particles entry at 5 uM after 72 hrs by luciferase reporter gene assay; type: functional, Hepacivirus hominis
[3] = system: Vesicular stomatitis virus; assay: Antiviral activity against pseudo VSV infected in human 293T cells assessed as inhibition of vesicular stromatis G protein pseudo particles entry at 1 uM after 72 hrs by luciferase reporter gene assay; type: functional
Hepatitis C virus [4] = assay: Antiviral activity against pseudo HCV infected in human 293T cells assessed as inhibition of HCV pseudo particles entry at 1 uM after 72 hrs by luciferase reporter gene assay; type: functional, Hepacivirus hominis

Row | SMILES | inhibition at 5 µM [1] | inhibition at 5 µM (Hepatitis C virus [2]) | inhibition at 1 µM [3] | inhibition at 1 µM (Hepatitis C virus [4])
1 | CC(=O)OC[C@H]1O[C@@H](n2cc(CNC(=O)[C@]34CCC(C)(C)C[C@H]3C3=CC[C@@H]5[C@@]6(C)CC[C@H](O)C(C)(C)[C@@H]6CC[C@@]5(C)[C@]3(C)C[C@H]4O)nn2)[C@H](OC(C)=O)[C@@H](OC(C)=O)[C@@H]1OC(C)=O | 12.5% | 89.7% | -9.1% | 20.3%
2 | CC1(C)CC[C@]2(C(=O)NCc3cn([C@@H]4O[C@H](CO)[C@@H](O[C@@H]5O[C@H](CO)[C@@H](O)[C@H](O)[C@H]5O)[C@H](O)[C@H]4O)nn3)[C@H](O)C[C@]3(C)C(=CC[C@@H]4[C@@]5(C)CC[C@H](O)C(C)(C)[C@@H]5CC[C@]43C)[C@@H]2C1 | 50.5% | 11.8% | 26.6% | 15.2%
3 | COC(=O)[C@]12CCC(C)(C)C[C@H]1C1=CC[C@@H]3[C@@]4(C)CCC(=O)C(C)(C)[C@@H]4CC[C@@]3(C)[C@]1(C)C[C@H]2O | 55.4% | 64.7% | 21.5% | 3.5%
4 | CC(=O)O[C@@H]1[C@H](OC(C)=O)[C@H](n2cc(CNC(=O)[C@]34CCC(C)(C)C[C@H]3C3=CC[C@@H]5[C@@]6(C)CC[C@H](O)C(C)(C)[C@@H]6CC[C@@]5(C)[C@]3(C)C[C@H]4O)nn2)OC[C@H]1OC(C)=O | 32.2% | 65.8% | 29.3% | 21.8%
5 | CC1(C)CC[C@]2(C(=O)NCc3cn([C@@H]4OC[C@@H](O)[C@H](O)[C@@H]4O)nn3)[C@H](O)C[C@]3(C)C(=CC[C@@H]4[C@@]5(C)CC[C@H](O)C(C)(C)[C@@H]5CC[C@]43C)[C@@H]2C1 | 35.2% | 43.2% | 7% | 20.3%
6 | CC1(C)CC[C@]2(C(=O)O[C@@H]3OC[C@@H](O)[C@@H](O)[C@@H]3O)[C@H](O)C[C@]3(C)C(=CC[C@@H]4[C@@]5(C)CC[C@H](O)C(C)(C)[C@@H]5CC[C@]43C)[C@@H]2C1 | 5.8% | 54.6% | 15.6% | 34.7%
7 | CC1(C)CC[C@]2(C(=O)NCc3cn([C@@H]4O[C@H](CO)[C@H](O)[C@H](O)[C@H]4O)nn3)[C@H](O)C[C@]3(C)C(=CC[C@@H]4[C@@]5(C)CC[C@H](O)C(C)(C)[C@@H]5CC[C@]43C)[C@@H]2C1 | 25.3% | 36.3% | 11.5% | 16.6%
8 | CC1(C)CC[C@]2(C(=O)O[C@@H]3O[C@H](CO)[C@@H](O[C@@H]4O[C@H](CO)[C@H](O)[C@H](O)[C@H]4O)[C@H](O)[C@H]3O)[C@H](O)C[C@]3(C)C(=CC[C@@H]4[C@@]5(C)CC[C@H](O)C(C)(C)[C@@H]5CC[C@]43C)[C@@H]2C1 | 16.7% | 40.1% | 22.6% | 32.7%
9 | COC(=O)[C@]12CCC(C)(C)C[C@H]1C1=CC[C@@H]3[C@@]4(C)CC[C@H](O[Si](C)(C)C(C)(C)C)C(C)(C)[C@@H]4CC[C@@]3(C)[C@]1(C)C[C@H]2O | 37.4% | 27.8% | 27.4% | 44.3%
10 | COC(=O)[C@]12CCC(C)(C)C[C@H]1C1=CC[C@@H]3[C@@]4(C)CCC(=O)C(C)(C)[C@@H]4CC[C@@]3(C)[C@]1(C)CC2=O | -2.8% | 70.1% | -10% | 48.2%
11 | CC(=O)O[C@@H]1[C@@H](OC(C)=O)[C@H](OC(C)=O)CO[C@H]1n1cc(CNC(=O)[C@]23CCC(C)(C)C[C@H]2C2=CC[C@@H]4[C@@]5(C)CC[C@H](O)C(C)(C)[C@@H]5CC[C@@]4(C)[C@]2(C)C[C@H]3O)nn1 | 47.7% | 87.3% | 39.8% | 35.9%
